The source of these data is PubChem BioAssay (NCI).

Some test systems named below: SF-295 CNS; HOP-62 NSCLC; NCI-H23 lung; HOP-92 NSCLC; NCI/ADR-RES ovarian; NCI-H226 lung; OVCAR-8 ovarian; SK-MEL-2 melanoma; CAKI-1 renal; UACC-257 melanoma.
Test in all cases: DTP human tumour cell line panel, 48 h

Several values for one entry are separate records, joined by “and”; a condition that tells them apart may be missing. Equal values may be shown once.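 These data come from cells grown in 96-well plates and exposed to compound for 48 hours at five concentrations. At the GI50, growth is halved. TGI marks complete inhibition of growth.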

Take `Cn1c(COC(=O)NCCN2CCOCC2)nc2c(N3CCOCC3)nc(-c3ccccc3)nc21`: the GI50 in the test with SF-295 CNS was 2.09 µM; with HOP-62 NSCLC it was 1.29 µM; with NCI-H23 lung it was 1.84 µM; in the test with HOP-92 NSCLC, 0.779 µM; in the test on NCI/ADR-RES ovarian, 1.93 µM; in the test on NCI-H226 lung it was 4.38 µM. For the same compound, the GI50 is 1.3 µM in the test on OVCAR-8 ovarian, 1.65 µM with SK-MEL-2 melanoma, 0.449 µM in the test on CAKI-1 renal and 1.44 µM in the test with UACC-257 melanoma. For the same compound, the TGI with SF-295 CNS is 5.99 µM; with HOP-62 NSCLC it was 3.3 µM; with NCI-H23 lung, 4.1 µM; in the test on HOP-92 NSCLC, 2.45 µM; with NCI/ADR-RES ovarian, 6.78 µM; with NCI-H226 lung, 20.3 µM. Besides, the TGI came to 3.4 µM in the test on OVCAR-8 ovarian, 3.2 µM in the test with SK-MEL-2 melanoma, 1.72 µM with CAKI-1 renal and 3.16 µM in the test on UACC-257 melanoma.
With `CCCCCCN(CCCCCC)CC(O)c1cccc2ccc(Cl)cc12` (centres undefined), the GI50 was 6.32 µM in the test with SF-295 CNS; 3.71 µM in the test on HOP-62 NSCLC; 5.42 µM in the test on NCI-H23 lung; 3.21 µM in the test with HOP-92 NSCLC; 11.4 µM in the test with NCI/ADR-RES ovarian; 4.89 µM with NCI-H226 lung. Moreover, the GI50 is 15.7 µM in the test with OVCAR-8 ovarian, 10.2 µM in the test on SK-MEL-2 melanoma, 2.64 µM with CAKI-1 renal and 12.9 µM with UACC-257 melanoma. In addition, the TGI in the test with SF-295 CNS came out at 22.1 µM; in the test with HOP-62 NSCLC, 14.5 µM; in the test with NCI-H23 lung, 19.5 µM; in the test with HOP-92 NSCLC, 19.5 µM; in the test with NCI/ADR-RES ovarian, 25.1 µM; in the test on NCI-H226 lung, 18.2 µM. Besides, the TGI came to 32.7 µM with OVCAR-8 ovarian, 24.6 µM with SK-MEL-2 melanoma, 14.7 µM in the test on CAKI-1 renal and 28.7 µM in the test with UACC-257 melanoma.
On to `COc1cc2c(cc1OC)[C@H]1C(=O)c3cc4c(cc3[C@H]1N(C)C2=O)OCO4`, for which the TGI in the test on SF-295 CNS is more than 69.9 µM; in the test on HOP-62 NSCLC, more than 79.2 µM; with NCI-H23 lung it was more than 74.1 µM; in the test with HOP-92 NSCLC, more than 89.8 µM; in the test with NCI/ADR-RES ovarian, more than 100 µM; with NCI-H226 lung, more than 100 µM. Moreover, the TGI in the test with OVCAR-8 ovarian, in the test on SK-MEL-2 melanoma, in the test on CAKI-1 renal and in the test with UACC-257 melanoma was more than 100 µM in each case.
For `O=C(NO)C(O)C(O)C(O)C(O)CO` (centres undefined), the TGI in the test with SF-295 CNS, in the test on HOP-62 NSCLC, with NCI-H23 lung, in the test on HOP-92 NSCLC, with NCI/ADR-RES ovarian and with NCI-H226 lung was more than 100 µM each time. Also, the TGI in the test on OVCAR-8 ovarian, with SK-MEL-2 melanoma, in the test on CAKI-1 renal and with UACC-257 melanoma was more than 100 µM each time. In addition, the GI50 in the test on HOP-62 NSCLC is > 92.5 µM and 68.3 µM; with NCI-H23 lung, more than 100 µM; with HOP-92 NSCLC, more than 100 µM; in the test with NCI/ADR-RES ovarian, more than 100 µM; in the test on NCI-H226 lung, > 71.5 µM and 50.4 µM; in the test on OVCAR-8 ovarian, more than 100 µM. Besides, the GI50 in the test with SK-MEL-2 melanoma is > 100 µM and 76.6 µM; in the test on CAKI-1 renal, 31.3 µM; in the test on UACC-257 melanoma, more than 100 µM.
`CCCCCCCCCCCCNC(=O)[C@H]1CSC(c2ccc(OC)c(F)c2)N1` (some centres undefined): the GI50 in the test on SF-295 CNS is 1.72 µM; in the test with HOP-62 NSCLC, 0.273 µM; in the test with NCI-H23 lung, 1.6 µM; in the test with HOP-92 NSCLC, 1.69 µM; with NCI/ADR-RES ovarian, 1.61 µM; in the test on NCI-H226 lung, 1.42 µM. The GI50 with OVCAR-8 ovarian was 1.18 µM; with SK-MEL-2 melanoma, 1.77 µM; in the test on CAKI-1 renal, 1.56 µM; in the test on UACC-257 melanoma it was 1.62 µM. Moreover, the TGI in the test on SF-295 CNS worked out at 3.25 µM; in the test with HOP-62 NSCLC, 0.748 µM; in the test with NCI-H23 lung, 3.27 µM; with HOP-92 NSCLC, 3.24 µM; in the test with NCI/ADR-RES ovarian, 3.52 µM; in the test on NCI-H226 lung, 3.21 µM. In addition, the TGI in the test on OVCAR-8 ovarian stood at 4.13 µM; in the test on SK-MEL-2 melanoma, 3.41 µM; with CAKI-1 renal, 2.94 µM; with UACC-257 melanoma, 3.13 µM.
